Values of other authors as cited in patent publication US20210322558A1, “PHENYLEPHRINE RESINATE PARTICLES AND USE THEREOF IN PHARMACEUTICAL FORMULATIONS” (JOHNSON & JOHNSON CONSUMER INC., priority 2013, published 2021).

What was measured:
[1] = 30 mg dose administered orally over eight hours

SMILES | metabolized to m-hydroxy-phenylglycol-sulfate, % of the dose [1] | metabolized to m-hydroxymandelic acid, % of the dose [1] | metabolized to phenylephrine-glucuronide, % of the dose [1] | metabolized to phenylephrine-sulfate, % of the dose [1] | fraction of a therapeutic dose excreted unchanged in the urine
CNC[C@H](O)c1cccc(O)c1.Cl [phenylephrine, (R)-1-(3-hydroxyphenyl)-2-methylaminoethanol] | 6% | 30% | 12% | 47% | 
CC(=O)Nc1ccc(O)cc1 [acetaminophen] |  |  |  |  | Less than 9%
